Consider eleven compounds from PMC3152678 (Bioorganic & medicinal chemistry, 2011).

The test system of one data set is immune response. Particulars: mice; cited from earlier work.
Data set [1] is classed as physicochemical. Particulars: Luria-Bertani medium, 37 °C; pseudo first-order.
For data set [2], the target named is T1, TraR (Agrobacterium tumefaciens, UniProt P33905). The data set is described as follows: TraR antagonism assay in A. tumefaciens WCF. The format is cell-based. Particulars: 10 μM, in the presence of OOHL.
The target of data set [3] is T1, TraR. In kind it is cell-based. Particulars: dose response.
For data set [4], the target named is T2, LasR (Pseudomonas aeruginosa, UniProt P25084). As to the kind of experiment: LasR reporter gene agonism assay in P. aeruginosa PA01 MW1. The format is cell-based. The following applies: P. aeruginosa LasR reporter strain. For orientation: In a reporter assay the amount or activity of a reporter protein is the signal.
Data set [5] deals with T2, LasR. As to the kind of experiment: LasR reporter gene agonism assay in E. coli DH5α. Particulars: E. coli LasR reporter strain. The format is cell-based.
A further data set concerns the target LuxR (Aliivibrio fischeri, UniProt P35327). As to the kind of experiment: LuxR antagonism assay in V. fischeri ESI 114. In kind it is cell-based, Vibrio fischeri.
In data set [6] the target is T2, LasR. As to the kind of experiment: LasR reporter gene antagonism assay in E. coli DH5α. The format is cell-based. The following applies: E. coli reporter strain.
The conditions of data set [7]: over the course of a week; cited from earlier work.

SMILES strings stand for the structures.

T2 sequence (P25084 whole entry): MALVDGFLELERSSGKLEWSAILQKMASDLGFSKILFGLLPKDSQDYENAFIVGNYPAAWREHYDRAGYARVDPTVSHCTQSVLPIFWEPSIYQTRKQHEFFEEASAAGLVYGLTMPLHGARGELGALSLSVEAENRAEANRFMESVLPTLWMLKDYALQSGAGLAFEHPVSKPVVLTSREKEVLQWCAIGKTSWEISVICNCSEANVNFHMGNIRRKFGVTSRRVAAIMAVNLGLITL
T1 sequence (P33905 whole entry): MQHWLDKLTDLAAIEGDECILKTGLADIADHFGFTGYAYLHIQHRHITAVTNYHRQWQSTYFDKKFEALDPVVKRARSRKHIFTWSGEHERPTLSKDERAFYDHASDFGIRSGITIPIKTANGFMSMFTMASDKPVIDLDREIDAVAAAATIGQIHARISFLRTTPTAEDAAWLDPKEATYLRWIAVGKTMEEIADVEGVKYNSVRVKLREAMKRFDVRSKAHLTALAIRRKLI
LuxR, sequence (P35327 whole entry): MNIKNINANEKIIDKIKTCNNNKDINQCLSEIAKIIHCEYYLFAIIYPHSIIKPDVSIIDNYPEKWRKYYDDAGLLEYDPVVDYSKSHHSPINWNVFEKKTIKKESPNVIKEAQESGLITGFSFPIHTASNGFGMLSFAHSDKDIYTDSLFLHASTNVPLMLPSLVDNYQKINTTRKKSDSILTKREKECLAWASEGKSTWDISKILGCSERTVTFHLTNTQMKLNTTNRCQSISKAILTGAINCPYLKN

Consider `CCCCCCCCCC(=O)CC(=O)N[C@H]1CCSC1=O` [Compound 15], for which the “times less of an immune response than the native OdDHL” value with immune response is on record as “approximately 40 times”. The “slope of natural log of percent of positive control vs time” value in data set [1] was −0.01025 ± 0.0004.

In the case of `CCCC(=O)N[C@H]1CCSC1=O` [Compound 19], the “TraR agonism in the antagonism assay (more than OOHL alone)” value (from here on “TraR agonism in the antagonism assay”) at TraR [2] is “over 70%”. For `CCCCCC(=O)CC(=O)N[C@H]1CCSC1=O` [Compound 18], the “fold less active than OOHL (TraR agonism)” value on TraR [3] amounted to 100 fold.

For `CCCC(=O)CC(=O)N[C@H]1CCSC1=O` [Compound 12], the “EC50 fold higher / fold less active than OdDHL, P. aeruginosa LasR” value at LasR [4] is given as ~ 10 fold. In addition, at LasR [5], the “EC50 fold higher / fold less active than OdDHL, E. coli LasR” value is on record as ~ 10 fold. Turning to `O=C(Cc1ccc(Br)cc1)N[C@H]1CCSC1=O` [Compound 31], at TraR [2], the “TraR agonism in the antagonism assay” value stood at 60%. In the case of `COc1ccc(CC(=O)N[C@H]2CCSC2=O)cc1` [Compound 29], the “agonistic activity in the TraR antagonism assay relative to OOHL” value at TraR [2] came out at 2 ×.

`CCCCCC(=O)N[C@H]1CCSC1=O` [Compound 20, N-hexanoyl thiolactone]: at TraR [2], the “TraR agonism in the antagonism assay” value is “over 70%”. With `CCCCCCCC(=O)N[C@H]1CCSC1=O` [Compound 22, N-octanoyl L-thiolactone], the “fold lower concentration than OHHL to antagonize LuxR by 50%” value at LuxR came to 10 fold. Further, the “fold higher concentration than OdDHL to antagonize LasR by 50%” value on LasR [6] was determined as 10 fold.

For `COc1ccc(CC(=O)NC2CCSC2=O)cc1` (stereo not shown) [Compound 28], the “TraR agonism in the antagonism assay” value at TraR [2] is on record as 24%.

Regarding `CCCCCCCCCC(=O)CC(=O)N[C@H]1CCOC1=O` [OdDHL, N-(3-oxo)-dodecanoyl HL, reference compound], the “racemization of the chiral center” value in data set [7] is “less than 5%”. In addition, the “slope of natural log of percent of positive control vs time” value in [1] was −0.01399 ± 0.0006.

In the case of `CCCCCCCCCCCC(=O)N[C@H]1CCSC1=O` [Compound 23, N-dodecanoyl thiolactone], the “EC50 fold higher / fold less active than OdDHL, P. aeruginosa LasR” value on LasR [4] was ~ 10 fold. The “EC50 fold higher / fold less active than OdDHL, E. coli LasR” value on LasR [5] is given as ~ 100 fold.
